Legend:
Cas-1 = assay: Fluorescence detection after co-incubation of deoxyshikonin, FPy1 and Cas-1; assay type: biochemical, human
Description: The efficient and rapid discovery of Cas-1 modulators is of significant importance considering the therapeutic potential of Cas-1 in various diseases.[39,40] Therefore, we employed FPy1 to construct a high-content screening system aimed at identifying Cas-1 modulators. The level of activated Cas-1 in cells is influenced by multiple factors. To reduce the impact of factors that affect Cas-1 activation in cells, we utilized the NLRP3 inflammasome-mediated Cas-1 activation model, administering the drug during the second stage where the zymogen was converted into activated Cas-1. MCC950, a selective NLRP3 inflammasome inhibitor that could suppress Cas-1 activation, was selected as the positive drug.[41] […] To validate the efficacy of the Cas-1 modulator screening system (Fig. 6a), we first observed the fluorescence images of PMs stained with FPy1 (5 μM) in the control group, model group, and positive drug group. […] Subsequently, the impact of 25 natural products (10 μM) on activated Cas-1 were studied using high-content analysis (Fig. S20). […] To determine whether deoxyshikonin directly binds to Cas-1 and inhibits its activity, we conducted fluorescence detection following co-incubation of deoxyshikonin, FPy1 and Cas-1. […] Overall, FPy1 could serve as an effective tool for the rapid identification of lead compounds that modulate Cas-1 activity within a high-content analysis platform. […]

[1] = tested on: activated Cas-1 in primary peritoneal macrophages; assay: High-content screening / fluorescence imaging for caspase-1 modulators in primary peritoneal macrophages; assay type: cell-based, mouse; conditions: natural product 10 μM with Nig 10 μM 2 h after LPS 4 h; FPy1 5 μM
Description: The efficient and rapid discovery of Cas-1 modulators is of significant importance considering the therapeutic potential of Cas-1 in various diseases.[39,40] Therefore, we employed FPy1 to construct a high-content screening system aimed at identifying Cas-1 modulators. The level of activated Cas-1 in cells is influenced by multiple factors. To reduce the impact of factors that affect Cas-1 activation in cells, we utilized the NLRP3 inflammasome-mediated Cas-1 activation model, administering the drug during the second stage where the zymogen was converted into activated Cas-1. MCC950, a selective NLRP3 inflammasome inhibitor that could suppress Cas-1 activation, was selected as the positive drug.[41] […] To validate the efficacy of the Cas-1 modulator screening system (Fig. 6a), we first observed the fluorescence images of PMs stained with FPy1 (5 μM) in the control group, model group, and positive drug group. […] Subsequently, the impact of 25 natural products (10 μM) on activated Cas-1 were studied using high-content analysis (Fig. S20). […] To determine whether deoxyshikonin directly binds to Cas-1 and inhibits its activity, we conducted fluorescence detection following co-incubation of deoxyshikonin, FPy1 and Cas-1. […]
Harvested rat discs were fixed in 4 % buffered paraformaldehyde for 24 hours, decalcified in 10 % ethylenediaminetetraacetic acid (EDTA, Solarbio, E8030) solution for 1 month, embedded in paraffin, and sectioned at a thickness of 5 μm. […] Stained sections were evaluated by three independent raters, blinded to the research protocol, and measurements were averaged for statistical analysis. […]
In vivo fluorescence imaging of intervertebral disc degeneration
Twelve rats were modeled with needle puncture-induced intervertebral disc degeneration at the Co5/6, Co6/7 and Co 7/8 levels. […] In vivo fluorescence images were acquired using an in vivo Imaging System (PerkinElmer). […]
In vivo fluorescence imaging of osteoarthritis […]

cleaved Cas-1 = assay: Western blot of cleaved Cas-1; assay type: cell-based; conditions: control and treated groups

SMILES: CC(C)=CCCC1=CC(=O)c2c(O)ccc(O)c2C1=O [deoxyshikonin]
- fluorescence at 585 nm in presence of compound (direct Cas-1 inhibition) (Cas-1): the fluorescence at 585 nm was lower in the presence of deoxyshikonin
- fluorescence intensity of FPy1 relative to model group, high-content analysis [1]: significant reduction in fluorescence intensity compared to the model group
- activated Cas-1 level (Western blot) (cleaved Cas-1): significantly inhibit the activation of Cas-1, reducing activated Cas-1 levels

Source: publication PMC12598616, “Design and optimization of caspase-1-responsive fluorescent probes for pyroptosis imaging and anti-pyroptosis drug screening” (Chemical Science, 2025)
